Assay results from US20200362303A1, “MAINTENANCE-AND-AMPLIFICATION METHOD AND DIFFERENTIATION INDUCTION METHOD FOR PRIMORDIAL GERM CELLS/PRIMORDIAL GERM CELL-LIKE CELLS” (KYOTO UNIVERSITY, priority 2017, published 2020).

Assays:
cultured PGCLC = assay: Immunofluorescence analysis of STRA8, SCP3, DDX4 in cultured PGCLC; type: cell-based, mouse; settings: cultured PGCLC, c9; BMP4, 5, 7 combined with RA; BMS493 with BMP2; LDN193189 with RA and BMP2
Method: (§1) The PGC/PGCLC expansion medium was constituted of 10% KSR, 2.5% FBS, 0.1 mM NEAA, 1 mM sodium pyruvate, 2 mM L-glutamine, 0.1 mM 2-mercaptoethanol, 100 U/ml penicillin, 0.1 mg/ml […] streptomycin, […] forskolin, and 10 μM rolipram. The entire medium was changed every 2 days from c3. Cytokines/compounds for induction of female fate were provided from c3 to the end of culture. RA and BMP concentrations used were 100 nM and 300 ng/ml, respectively, unless otherwise specified. Brightfield and fluorescence images were captured using an IX73 inverted microscope (Olympus).
Immunofluorescence (IF) analysis was performed as described previously (Hayashi et al, 2012). The following primary antibodies were used: chicken anti-GFP (ab13970; Abeam), rabbit anti-DDX4 (ab13840; Abeam), mouse anti-DDX4 (ab27591; Abeam), rabbit anti-DAZL (ab34129; Abeam), goat anti-DAZL (sc-27333; Santa Cruz), rabbit anti-STRA8 (ab49602; Abeam), mouse anti-SYCP3 (ab97672; Abeam) and rabbit anti-TEX14 (ab41733; Abeam)IgG. The following secondary antibodies were used: Alexa Fluor 488-goat anti-mouse or chicken IgG; Alexa Fluor 568-goat anti-rabbit IgG and Alexa Fluor 633-goat anti-mouse, anti-chicken IgG; Alexa Fluor 488-donkey anti-mouse IgG; Alexa Fluor 568-donkey anti-rabbit IgG and Alexa Fluor 633-donkey anti-goat IgG. IF images were acquired using a confocal microscope [FV1000 (Olympus) or LSM780 (Zeiss)].

PGCLC = assay: CsA or FK506 alone at various concentrations on PGCLC proliferation (fold difference d7/d1); type: cell-based, mouse; settings: 10, 5, 1, 0 μM, in place of FR10
BV (+) d4 PGCLCs = assay: Compound library screening for PGCLC proliferation (BV fluorescence by cell analyzer); type: cell-based, mouse; settings: 10 μM; day 7 of culture
Method: d4 PGCLC was seeded by FACS on m220-5 feeders in 96-well plates and BV fluorescence was monitored by cell analyzer (Cellavista; SynenTec). Fluorescence photograph for BV was taken by Cellavista cell analyzer with the following settings: 10× objectives; exposure time: 140 μsec; gain: 4×; binning: 4×4; excitation: 500/24 nm; emission: 542/27 nm. BV fluorescence was detected using the following algorithm/attribute parameters: sensitivity: 10; region merging: 200; min. granule intensity: 50; well edge distance: 200; contrast: 1; size: 3,000; intensity: 255; roughness: 500; granularity: 100; granule intensity: 255; granule count: 10,000; longishness: 100; compactness: 1. The value of “cell nucleus” was used for the detection of BV fluorescence.
The compound library was screened at concentrations of 10 μM and 1 μM. […] 200 BV (+) d4 PGCLCs induced from BDF1-2 ESC were seeded in the wells of a 96-well plate, and BV fluorescence was measured on the Cellavista cell analyzer on day 1 of culture (c1), c3, c5 and c7. The value of “cell nucleus” was used for the detection of BV fluorescence. […] For each compound, the fold difference in BV fluorescence between c1 and c7 was calculated for each compound and compounds with a fold difference value exceeding 3SD of the mean of the negative control were identified as those that potentiate PGCLC proliferation.

BMP signaling pathway = assay: BMP signaling in PGCLC: pSMAD1/5/8 (Western blot) and Id1/Id2 expression; type: cell-based, mouse; settings: PGCLC stimulated by RA and BMP2
Method: For Western blot analysis, 5×10^4 cells were lysed in SDS sample buffer [62.5 mM Tris-HCl (pH 6.8), 2% SDS, 10% glycerol, 0.025% bromophenol blue and 0.14 M-mercaptoethanol] at 90° C. for 5 min. For detection of phosphorylated (p)SMAD1/5/8, the cells were treated with PhosSTOP (Roche) and complete protease inhibitor cocktail (Roche) before lysis. The extracted protein was separated by SuperSep Ace 10-20% gel (Wako), blotted on iBlot2 PVDF transfer membrane (Thermo Fisher) by iBlot2 dry blotting system (Thermo Fisher), and incubated with the primary antibody: rabbit anti-STRA8 IgG (ab49405; Abeam), mouse anti-α tubulin (T9026; Sigma-Aldrich), rabbit anti-pSMAD1/5/8 IgG (#9511; CST), or rabbit anti-SMAD1 IgG (#97435 CST). Primary antibodies were detected with goat anti-rabbit IgG or sheep anti-mouse IgG conjugated to HRP (A0545, M8642; Sigma-Aldrich), followed by Chemi-Lumi One Super (Nacalai). Chemiluminescence image acquisition and analysis was performed using the Fusion Solo system and Fusion-Capt software (M & S Instruments).
(§2) qPCR was performed using CFX384 (Bio-Rad) and Power SYBR Green (ABI, Foster City, Calif.) according to the manufacturer's instructions. Template cDNA was prepared as described in the “Transcriptome analysis” section and the primers used are listed in Primers.

[1] = tested on: female germ cell fate in embryos; assay: Administration of LDN193189 to pregnant females, germ cell fate at E14.5; type: in vivo, mouse
Method: To administer LDN-193189 to pregnant females (ICR), LDN-193189 (sm10559; Sigma-Aldrich) is dissolved in sterile water, and 2.5 mg LDN-193189 was injected intraperitoneally every 12 hours from E11 to E14 per kg body weight.
as §2

d4 PGCLC [2] = assay: Measurement of intracellular cAMP concentration (cAMPGlo Max assay); type: cell-based, mouse; settings: pretreated 30 min at room temperature
Method: The intracellular cAMP concentration was measured using cAMPGlo Max assay kit (Promega) according to the manufacturer's instructions. A standard curve using purified cAMP was prepared by calculating the Δrelative light unit (ΔRLU) (RLU [0 nM]-RLU [X nM]). For each sample, 1×10^4 d4 PGCLC was pretreated with forskolin and/or rolipram for 30 min at room temperature and the ΔRLU (RLU [untreated sample-RLU [treated sample]) was calculated. An increase in the intracellular cAMP level due to chemical treatments was inferred from the cAMP standard curve. Three biological replicates were analyzed for each sample.

d4 PGCLC [3] = assay: Expansion culture of d4 PGCLC on m220-5 feeder (cell number fold increase); type: cell-based, mouse; settings: 10 μM alone; BVSC BDF1-2; SCF, m220 feeder
Method: Since the m220-5 feeder treated with MMC was vulnerable to forskolin and rolipram, m220-5 cells were subcultured 3 times with both forskolin and rolipram each at 10 μM and adapted to these compounds before MMC treatment (1-2 μg/ml for 2 hr). d4 PGCLC or E9.5 PGC(BDF1×Stella-EGFP) was selected by FACS, and the cells were seeded on m220-5 cells in GMEM medium containing 10% KSR, 0.1 mM NEAA, 1 mM sodium pyruvate, 0.1 mM 2-mercaptoethanol, 100 U/ml penicillin, 0.1 mg/ml streptomycin, 2 mM L-glutamine, 2.5% FCS, 100 ng/ml SCF, 10 μM forskolin, and 10 μM rolipram. Half of the culture medium was changed every 2 days.
Expansion culture of PGC/PGCLC to investigate the combined effect of cyclosporin A (CsA) was performed as in Example [I], except that 5 μM CsA was added to the medium in addition to 10 μM forskolin and 10 μM loripram (FR10).

[4] = tested on: PGCLC induced from BVSCDT ESC(XY); assay: Screening for factors inducing female germ cell fate: DT and BV expression by FACS at c7; type: cell-based, mouse; settings: added from c3, read at c7; RA 100 nM, cytokines 500 ng/ml; BMPs in combination with RA
Method: as §1
The preparation of d4/c0 PGCLC for FACS is described in “ESC culture/induction and PGCLC induction/culture”. To isolate germ cells in vivo, fetal gonads of BVSC, VR or SG mice were cut and processed for FACS according to the procedure described for d4/c0 PGCLC. Culture PGCLC was also prepared by the same method except that, after dissociation, the cells were washed with 0.1% BSA-DMEM containing 100 μg/ml DNase (Sigma-Aldrich), lysed DNA from dead cells was digested to prevent the formation of cell/debris clumps. Fluorescent activity of BV/SG, SC, or DT/VR was detected with FITC, Horizon V500 or PE-Texas Red channels, respectively. FACS data was analyzed using FlowJo or FACS Diva software package.
In the signal inhibitory experiment, LDN193189 (#04-0074; Stemgent) and BMS493 (B6688; Sigma-Aldrich) dissolved in DMSO were used as ALK2/3 inhibitor and RAR inhibitor, respectively.

In the case of `CC1(C)CC=C(C#Cc2ccccc2)c2cc(/C=C/c3ccc(C(=O)O)cc3)ccc21` [BMS493], the “induction of VR/DDX4 and SCP3 (+) cells (meiotic entry)” value (shortened to “induction of VR/DDX4 and SCP3”) (cultured PGCLC) is reported as “abolished upregulation of VR/DDX4 as well as induction of SCP3”.

`C=CC[C@@H]1/C=C(\C)C[C@H](C)C[C@H](OC)[C@H]2O[C@@](O)(C(=O)C(=O)N3CCCC[C@H]3C(=O)O[C@H](/C(C)=C/[C@@H]3CC[C@@H](O)[C@H](OC)C3)[C@H](C)[C@@H](O)CC1=O)[C@H](C)C[C@@H]2OC` [FK506, tacrolimus] was tested, and the “proliferative effect on PGCLCs” value (PGCLC) was “did not have a proliferative effect”.

`COc1cccc(Nc2c(C(N)=O)cnc3c(C)cc(S(=O)(=O)c4cccc(C(=O)N(C)C)c4)cc23)c1` [GSK256066] was tested, and the “colony formation of BV(+) cells” value (BV (+) d4 PGCLCs) was “formation of plural colonies with unique flat morphology”.

For `c1ccc2c(-c3cnn4cc(-c5ccc(N6CCNCC6)cc5)cnc34)ccnc2c1` [LDN193189], the “induction of VR/DDX4 and SCP3” value (cultured PGCLC) was “blocked RA- and BMP2-induced VR activation and meiotic entry in a dose-dependent manner”, the “pSMAD1/5/8 and Id1, Id2 expression” value (BMP signaling pathway) was “blocked such effects” and the “progression to female germ cell fate” value ([1]; every 12 hr from E11.5 to E14.0, read at E14.5) was “caused a significant impairment of progression to female germ cell fate”. For the same molecule, the “expression of key genes of late PGC/female germ cell development (qPCR)” value ([1]; female VR(+) cells at E14.5) was “up-regulated key genes in late PGC/female germplasm development” and the “male germ cell development (qPCR)” value ([1]; male VR(+) cells at E14.5) was “unaffected”.

In the case of `C=C[C@@]1(C)CC(=O)[C@]2(O)[C@@]3(C)[C@@H](O)CCC(C)(C)[C@@H]3[C@H](O)[C@H](OC(C)=O)[C@@]2(C)O1` [forskolin], the “cAMP concentration in PGCLC” value (d4 PGCLC [2]) is reported as “about 4 nM/1×10^4 d4 PGCLC”.

In the case of `COc1ccc(C2CNC(=O)C2)cc1OC1CCCC1` (centres unmarked) [rolipram], the “cAMP concentration in PGCLC” value (d4 PGCLC [2]) is reported as “about 4 nM/1×10^4 d4 PGCLC” and the “effect on proliferation of d4 PGCLC (compound alone)” value (d4 PGCLC [3]) is reported as “relatively mild”.

B1: BMP5: bone morphogenetic protein 5 cytokine (R&D Systems) (protein, UniProt P22003 317-454, looked up)
Bone morphogenetic protein 5: AANKRKNQNRNKSSSHQDSSRMSSVGDYNTSEQKQACKKHELYVSFRDLGWQDWIIAPEGYAAFYCDGECSFPLNAHMNATNHAIVQTLVHLMFPDHVPKPCCAPTKLNAISVLYFDDSSNVILKKYRNMVVRSCGCH
In the case of B1, the “induction of VR/DDX4 and SCP3” value (cultured PGCLC) is reported as “able to induce VR/DDX4 and SCP3(+) cells” and the “DT and BV expression in BV (+) cells” value [4] is reported as “strongly activated DT and simultaneously down-regulated BV”.

B2: BMP4: bone morphogenetic protein 4 cytokine (R&D Systems) (protein, UniProt P12644 293-408, looked up)
Bone morphogenetic protein 4: SPKHHSQRARKKNKNCRRHSLYVDFSDVGWNDWIVAPPGYQAFYCHGDCPFPLADHLNSTNHAIVQTLVNSVNSSIPKACCVPTELSAISMLYLDEYDKVVLKNYQEMVVEGCGCR
For B2, the “induction of VR/DDX4 and SCP3” value (cultured PGCLC) was “able to induce VR/DDX4 and SCP3(+) cells” and the “DT and BV expression in BV (+) cells” value [4] was “strongly activated DT and simultaneously down-regulated BV”.

B3: BMP7: bone morphogenetic protein 7 cytokine (R&D Systems) (protein, UniProt P18075 293-431, looked up)
Bone morphogenetic protein 7: STGSKQRSQNRSKTPKNQEALRMANVAENSSSDQRQACKKHELYVSFRDLGWQDWIIAPEGYAAYYCEGECAFPLNSYMNATNHAIVQTLVHFINPETVPKPCCAPTQLNAISVLYFDDSSNVILKKYRNMVVRACGCH
For B3, the “induction of VR/DDX4 and SCP3” value (cultured PGCLC) was “able to induce VR/DDX4 and SCP3(+) cells” and the “DT and BV expression in BV (+) cells” value [4] was “strongly activated DT and simultaneously down-regulated BV”.
